Assay results taken from US20110251286A1, “Crystalline salts and/or co-crystals of O-desmethyltramadol” (GRUENENTHAL GmbH, priority 2010, published 2011).

Assay: Release in artificial intestinal juice
Format: physicochemical
Conditions: for Release in artificial intestinal juice, percent of the substance released: permeable bag, amount calculated on 100 mg free base
Procedure: Investigations on release were carried out in a Sotax AT7 smart release apparatus with UV measurement (Perkin Elmer photometer).
A vessel with Wood apparatus was used (for intrinsic release).
A pressing of 0.5 cm^2 surface area (diameter 8 mm) was produced with a force of 200 N using approximately 100 mg of active ingredient.
Release was carried out in a release medium, which is composed as described below: • Intestinal juice without pancreas powder, pH 6.8 (analogous to Ph. Eur.); 250.0 ml 6.8 g of potassium dihydrogenphosphate R+0.896 g of NaOH+water to 1000.0 ml.
Release was carried out in a release volume of in each case 500±5 ml at a temperature of the release medium of 37±1° C. with a stirring speed of 100±5 rpm.
The content determination was carried out by means of spectroscopic methods (UV spectroscopy, wavelength: 271 nm, cuvette: 10 mm). Sample taking was carried out manually.
In this release experiment, the individual compounds were placed in a permeable bag in an amount in each case calculated on 100 mg of the free base.
The results, expressed in percent of the substance released, are reproduced in the following tables. In this case, the compounds denote: HCl: hydrochloride; A: cinnamate; B: palmitate; C: decanoate; E: hemi-fumarate and F: hemi-sebacate.

Molecule	Release in artificial intestinal juice, percent of the substance released (t 2 min) [%]	Release in artificial intestinal juice, percent of the substance released (t 4 min) [%]	Release in artificial intestinal juice, percent of the substance released (t 6 min) [%]	Release in artificial intestinal juice, percent of the substance released (t 8 min) [%]	Release in artificial intestinal juice, percent of the substance released (t 10 min) [%]	Release in artificial intestinal juice, percent of the substance released (t 12 min) [%]	Release in artificial intestinal juice, percent of the substance released (t 15 min) [%]	Release in artificial intestinal juice, percent of the substance released (t 30 min) [%]	release rate compared to the hydrochloride salt (in artificial intestinal juice)
CN(C)CC1CCCCC1(O)c1cccc(O)c1.O=C(O)C=Cc1ccccc1 (centres unmarked) [A-1]	58.49	74.11	84.48	91.49	92.24	96.63	97.34	102.44	–
CCCCCCCCCC(=O)O.CN(C)CC1CCCCC1(O)c1cccc(O)c1 (centres unmarked) [C-1]	79.57	93.67	99.13	99.87	99.63	99.80	99.92	100.27	–
octanoate	–	–	–	–	–	–	–	–	decreased release rates compared to the hydrochloride salt
CN(C)CC1CCCCC1(O)c1cccc(O)c1.CN(C)CC1CCCCC1(O)c1cccc(O)c1.O=C(O)CCCCCCCCC(=O)O (centres unmarked) [F-2]	96.05	99.26	100.16	1.21	100.92	101.24	101.22	101.26	–
CCCCCCCCCC(=O)O.CN(C)CC1CCCCC1(O)c1cccc(O)c1 (centres unmarked) [C-2]	92.62	99.12	99.74	99.73	99.55	99.73	99.56	99.77	–
CCCCCCCCCCCCCCCC(=O)O.CN(C)CC1CCCCC1(O)c1cccc(O)c1 [B-1]	17.63	31.60	55.36	53.71	67.26	69.49	76.13	95.50	–
